Reference: ChEMBL document CHEMBL1914436, “Synthesis and in vivo evaluation of cyclic diaminopropane BACE-1 inhibitors” (Bioorg Med Chem Lett, 2011)
The source made the active and inactive calls. The calls are words filed in the database; no cut-off is given here.

Assays:
Beta-secretase 1 [1] = molecular target: T1, Beta-secretase 1 (Homo sapiens, UniProt P56817); assay: Inhibition of BACE-1
Beta-secretase 1 [2] = molecular target: T1, Beta-secretase 1; assay: Inhibition of BACE-1 in human HEK293 cells overexpressing APP 695 swedish mutation assessed as inhibition of amyloid beta (1 to 40) production by immunoprecipitation assay; assay type: cell-based
Plasma [3] = assay: Drug level in rat plasma at 30 mg/kg, ip; assay type: ADME, organism-based; design: dose 30 mg/kg, route intraperitoneal; settings: in vivo, read-out: Drug uptake
Beta-secretase 1 [4] = molecular target: T1, Beta-secretase 1; assay: Inhibition of BACE-1 in human HEK293 cells overexpressing APP 695 swedish mutation assessed as inhibition of amyloid beta (1 to 40) production by ELISA method; assay type: cell-based
[5] = Permeability from apical to basolateral side of human Caco2 cells; assay type: ADME, cell-based; settings: Caco-2, read-out: permeability
Brain [6] = assay: Drug level in rat brain at 100 mg/kg, ip; assay type: ADME, organism-based; design: dose 100 mg/kg, route intraperitoneal; settings: in vivo, read-out: Drug uptake
Beta-secretase 1 [7] = molecular target: T1, Beta-secretase 1; assay: Displacement of [3H]BMS-599240 from recombinant human BACE-1
[8] = Efflux ratio of permeability from basolateral to apical side to apical to basolateral side of human Caco2 cells; assay type: ADME, cell-based; settings: Caco-2
[9] = Fraction unbound in rat plasma at 30 mg/kg, ip; assay type: ADME, organism-based; design: dose 30 mg/kg, route intraperitoneal
Rattus norvegicus [10] = assay: Antialzheimer activity in rat assessed as reduction in brain amyloid beta (1 to 40) level up to 100 mg/kg, ip measured at 5 hrs post-dose; assay type: functional, organism-based; design: dose 100 mg/kg
[11] = Permeability from basolateral to apical side of human Caco2 cells; assay type: ADME, cell-based; settings: Caco-2, read-out: permeability
[12] = Ratio of drug level in brain to plasma in rat at 100 mg/kg, ip at 5 hrs; assay type: ADME, organism-based; design: dose 100 mg/kg, route intraperitoneal; settings: brain and plasma, read-out: BPR
Plasma [13] = assay: Antialzheimer activity in ip dosed rat assessed as reduction in plasma amyloid beta (1 to 40) level measured at 5 hrs post-dose; assay type: functional
Brain [14] = assay: Drug level in rat brain at 100 mg/kg, sc; assay type: ADME, organism-based; design: dose 100 mg/kg, route subcutaneous; settings: in vivo, read-out: Drug uptake
Rattus norvegicus [15] = assay: Antialzheimer activity in rat plasma assessed as amyloid beta (1 to 40) level at 3 mg/kg, sc relative to vehicle treated control; assay type: functional; settings: route subcutaneous
Rattus norvegicus [16] = assay: Antialzheimer activity in rat brain assessed as amyloid beta (1 to 40) level at 10 mg/kg, sc relative to vehicle treated control; assay type: functional; settings: route subcutaneous
Rattus norvegicus [17] = assay: Antialzheimer activity in rat plasma assessed as reduction in amyloid beta (1 to 40) level at 3 mg/kg, sc relative to vehicle treated control; assay type: functional; design: scale not given: the % may be the effect or the level left; settings: route subcutaneous
Rattus norvegicus [18] = assay: Antialzheimer activity in rat plasma assessed as amyloid beta (1 to 40) level at 10 mg/kg, sc relative to vehicle treated control; assay type: functional; settings: route subcutaneous
Plasma [19] = assay: Total plasma concentration in rat at 10 mg/kg, sc; assay type: ADME, organism-based; design: dose 10 mg/kg, route subcutaneous; settings: in vivo
Plasma [20] = assay: Total plasma concentration in rat at 100 mg/kg, sc; assay type: ADME, organism-based; design: dose 100 mg/kg, route subcutaneous; settings: in vivo
[21] = Ratio of drug level in brain to plasma in rat at 3 mg/kg, sc; assay type: ADME, organism-based; design: dose 3 mg/kg, route subcutaneous; settings: brain and plasma, read-out: BPR
[22] = Ratio of drug level in brain to plasma in rat at 100 mg/kg, sc; assay type: ADME, organism-based; design: dose 100 mg/kg, route subcutaneous; settings: brain and plasma, read-out: BPR
[23] = Ratio of drug level in brain to plasma in rat at 10 mg/kg, sc; assay type: ADME, organism-based; design: dose 10 mg/kg, route subcutaneous; settings: brain and plasma, read-out: BPR
Brain [24] = assay: Drug level in rat brain at 10 mg/kg, sc; assay type: ADME, organism-based; design: dose 10 mg/kg, route subcutaneous; settings: in vivo, read-out: Drug uptake
Mus musculus [25] = assay: Antialzheimer activity in sc dosed P-gp knockout mouse plasma assessed as reduction in amyloid beta (1 to 40) level after 5 hrs by ELISA; assay type: functional
Plasma [26] = assay: Total plasma concentration in rat at 3 mg/kg, sc; assay type: ADME, organism-based; design: dose 3 mg/kg, route subcutaneous; settings: in vivo
[27] = Fraction unbound in sc dosed mouse plasma; assay type: ADME, organism-based
Mus musculus [28] = assay: Antialzheimer activity in sc dosed P-gp knockout mouse brain assessed as reduction in amyloid beta (1 to 40) level after 5 hrs by ELISA; assay type: functional
[29] = Fraction unbound in sc dosed rat plasma; assay type: ADME, organism-based
Mus musculus [30] = assay: Antialzheimer activity in wild type mouse brain assessed as reduction in amyloid beta (1 to 40) level up to 100 mg/kg, sc; assay type: functional, organism-based; design: dose 100 mg/kg
Brain [31] = assay: Drug level in rat brain at 3 mg/kg, sc; assay type: ADME, organism-based; design: dose 3 mg/kg, route subcutaneous; settings: in vivo, read-out: Drug uptake
Rattus norvegicus [32] = assay: Antialzheimer activity in rat plasma assessed as amyloid beta (1 to 40) level at 100 mg/kg, sc relative to vehicle treated control; assay type: functional; settings: route subcutaneous
Rattus norvegicus [33] = assay: Antialzheimer activity in rat brain assessed as amyloid beta (1 to 40) level at 100 mg/kg, sc relative to vehicle treated control; assay type: functional; settings: route subcutaneous
Rattus norvegicus [34] = assay: Antialzheimer activity in rat brain assessed as amyloid beta (1 to 40) level at 3 mg/kg, sc relative to vehicle treated control; assay type: functional; settings: route subcutaneous

T1 sequence (P56817 whole entry): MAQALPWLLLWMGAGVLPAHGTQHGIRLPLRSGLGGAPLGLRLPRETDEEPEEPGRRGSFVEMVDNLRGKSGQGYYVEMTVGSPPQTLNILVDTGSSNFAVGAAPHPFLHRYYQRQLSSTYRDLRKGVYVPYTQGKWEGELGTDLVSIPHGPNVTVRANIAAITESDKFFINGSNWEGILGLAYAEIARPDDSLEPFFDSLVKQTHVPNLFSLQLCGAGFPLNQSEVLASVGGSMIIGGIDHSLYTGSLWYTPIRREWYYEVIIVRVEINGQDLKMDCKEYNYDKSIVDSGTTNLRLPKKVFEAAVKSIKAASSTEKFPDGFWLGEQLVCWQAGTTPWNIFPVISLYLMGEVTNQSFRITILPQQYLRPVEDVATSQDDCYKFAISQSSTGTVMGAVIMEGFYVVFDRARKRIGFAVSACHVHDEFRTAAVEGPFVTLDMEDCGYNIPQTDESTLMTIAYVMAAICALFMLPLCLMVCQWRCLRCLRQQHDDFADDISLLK

## CCC(C)[C@@]1(N)CCN([C@@H](CCc2ccccc2)C(=O)N[C@@H](CC(C)C)[C@@H](O)C[C@@H](C)C(=O)NCCCCc2ccccc2)C1=O (stereo partly drawn)
Beta-secretase 1 [1]
  IC50: 141 nM

## CC(=O)N[C@]1(CC(C)C)CCN([C@@H](CCc2ccccc2)C(=O)N[C@@H](Cc2cc(F)cc(F)c2)[C@H](O)C2Cc3ccccc3CN2)C1=O (stereo partly drawn)
Beta-secretase 1 [1]
  IC50: 8 nM
Beta-secretase 1 [2]
  IC50: 10 nM

## CCC(C)[C@@]1(NC(C)=O)CCN([C@@H](CCc2ccccc2)C(=O)N[C@@H](Cc2cc(F)cc(F)c2)[C@H](O)CNCc2cccc(OC)c2)C1=O (stereo partly drawn)
Plasma [3]
  concentration: 3700 nM
Beta-secretase 1 [4]
  IC50: 3 nM
[5]
  Papp A→B: 7.5 ×10⁻⁶ cm/s
Brain [6]
  concentration: 113 nM
Beta-secretase 1 [7]
  IC50: 2 nM
[8]
  efflux ratio: 1.5
[9]
  fraction unbound: 0.011
Rattus norvegicus [10]
  Activity: inactive
[11]
  Papp B→A: 11.4 ×10⁻⁶ cm/s
[12]
  Kp at 5 h: < 0.05
Plasma [13]
  Activity: Dose-dependent effect
  ED50: 30 mg/kg

## CCC(C)[C@@]1(NC(C)=O)CCN([C@@H](CCc2ccccc2)C(=O)N[C@@H](Cc2cc(F)cc(F)c2)[C@H](O)[C@@H]2Cc3ccccc3CN2)C1=O (stereo partly drawn)
Beta-secretase 1 [1]
  IC50: 600 nM

## CCC(C)[C@@]1(NC(C)=O)CCN([C@@H](CCc2ccccc2)C(=O)N[C@@H](Cc2cc(F)cc(F)c2)[C@H](O)C2Cc3cccc(OC)c3CN2)C1=O (stereo partly drawn)
Beta-secretase 1 [1]
  IC50: 4 nM
Beta-secretase 1 [2]
  IC50: 20 nM

## CCCS[C@H]1CN[C@@H]([C@@H](O)[C@H](Cc2cc(F)cc(F)c2)NC(=O)[C@H](CCc2ccccc2)N2CC[C@](NC(C)=O)(C(C)CC)C2=O)C1 (stereo partly drawn)
Beta-secretase 1 [2]
  IC50: 15 nM

## CCCCN(C)C(=O)n1cc(C(=O)N[C@@H](Cc2cc(F)cc(F)c2)[C@H](O)[C@H]2Cc3ccccc3CN2)c2cccnc21
Beta-secretase 1 [1]
  IC50: 1200 nM

## CCC(C)[C@@]1(NC(C)=O)CCN([C@@H](CCc2ccccc2)C(=O)N[C@@H](Cc2cc(F)cc(F)c2)[C@H](O)C2Cc3ccccc3CN2)C1=O (stereo partly drawn)
Beta-secretase 1 [1]
  IC50: 54 nM
Beta-secretase 1 [2]
  IC50: 110 nM

## CCCC[C@@H]1CCN([C@@H](C)C(=O)N[C@@H](Cc2cc(F)cc(F)c2)[C@H](O)[C@H]2C[C@@H](S(=O)(=O)CCC)CN2)C1=O
Beta-secretase 1 [2]
  IC50: > 330 nM

## CCC(C)[C@@]1(NC(C)=O)CCN([C@@H](CCc2ccccc2)C(=O)N[C@@H](Cc2cc(F)cc(F)c2)[C@H](O)[C@H]2C[C@@H](S(=O)(=O)c3ccccc3)CN2)C1=O (stereo partly drawn)
Beta-secretase 1 [2]
  IC50: 12 nM

## CCCN(CCC)C(=O)c1cccc(C(=O)N[C@@H](Cc2cc(F)cc(F)c2)[C@H](O)[C@H]2Cc3ccccc3CN2)c1 (stereo in doubt; 15a)
Beta-secretase 1 [1]
  IC50: 1100 nM

## CCCS(=O)(=O)[C@H]1CN[C@@H]([C@@H](O)[C@H](Cc2cc(F)cc(F)c2)NC(=O)[C@H](CCc2ccccc2)N2CC[C@](NC(C)=O)(C(C)CC)C2=O)C1 (stereo partly drawn)
Brain [14]
  concentration: 260 nM
Rattus norvegicus [15]
  Activity: 28%
Rattus norvegicus [16]
  Activity: 92%
Rattus norvegicus [17]
  Activity: 72%
Rattus norvegicus [18]
  Activity: 10%
Plasma [19]
  concentration: 740 nM
[5]
  Papp A→B: < 1.5 ×10⁻⁶ cm/s
Plasma [20]
  concentration: 5800 nM
[8]
  efflux ratio: > 4
[21]
  Kp: 0.32
[22]
  Kp: 0.05
[23]
  Kp: 0.11
Brain [24]
  concentration: 78 nM
Mus musculus [25]
  ED50: 30 mg/kg
Plasma [26]
  concentration: 160 nM
[27]
  fraction unbound: 0.24
Mus musculus [28]
  ED50: 50 mg/kg
[11]
  Papp B→A: 5.8 ×10⁻⁶ cm/s
[29]
  fraction unbound: 0.3
Mus musculus [30]
  Activity: inactive
Brain [31]
  concentration: 46 nM
Rattus norvegicus [32]
  Activity: 15%
Rattus norvegicus [33]
  Activity: 91%
Beta-secretase 1 [2]
  IC50: 5 nM
Rattus norvegicus [34]
  Activity: 85%

## CCC(C)[C@@]1(NC(C)=O)CCN([C@@H](CCc2ccccc2)C(=O)N[C@@H](Cc2cc(F)cc(F)c2)[C@H](O)[C@H]2C[C@@H](S(=O)(=O)Cc3ccc(F)cc3)CN2)C1=O (stereo partly drawn)
Beta-secretase 1 [2]
  IC50: 3 nM

## CCCN(CCC)C(=O)c1cccc(C(=O)N[C@@H](Cc2cc(F)cc(F)c2)[C@H](O)[C@H]2Cc3ccccc3CN2)c1 (stereo in doubt; 15b)
Beta-secretase 1 [1]
  IC50: 1600 nM

## CCCC[C@H]1CCN([C@@H](CCc2ccccc2)C(=O)N[C@@H](Cc2cc(F)cc(F)c2)[C@H](O)[C@H]2Cc3ccccc3CN2)C1=O
Beta-secretase 1 [1]
  IC50: 1000 nM

## CCC(C)[C@@]1(NC(C)=O)CCN([C@@H](CCc2ccccc2)C(=O)N[C@@H](Cc2ccccc2)[C@H](O)CNCc2cccc(OC)c2)C1=O (stereo partly drawn)
Beta-secretase 1 [4]
  IC50: 11 nM
Beta-secretase 1 [7]
  IC50: 5 nM

## CCCOc1cccc2c1CNC([C@@H](O)[C@H](Cc1cc(F)cc(F)c1)NC(=O)[C@H](CCc1ccccc1)N1CC[C@](NC(C)=O)(C(C)CC)C1=O)C2 (stereo partly drawn)
Beta-secretase 1 [1]
  IC50: 17 nM
Beta-secretase 1 [2]
  IC50: 140 nM

## CC[C@@H](C)[C@H](N)C(=O)N[C@@H](CCc1ccccc1)C(=O)N[C@@H](CC(C)C)[C@@H](O)C[C@@H](C)C(=O)NCCCCc1ccccc1
Beta-secretase 1 [1]
  IC50: 88 nM

## CCCN(CCC)C(=O)c1cc(C(=O)N[C@@H](Cc2cc(F)cc(F)c2)[C@H](O)[C@H]2C[C@@H](S(=O)(=O)CCC)CN2)cc(-c2ncco2)c1
Beta-secretase 1 [2]
  IC50: 68 nM

## CCCS(=O)(=O)[C@@H]1CN[C@@H]([C@@H](O)[C@H](Cc2cc(F)cc(F)c2)NC(=O)[C@H](CCc2ccccc2)N2CC[C@](NC(C)=O)(C(C)CC)C2=O)C1 (stereo partly drawn)
Beta-secretase 1 [2]
  IC50: 45 nM

## CCC(C)[C@@]1(NC(C)=O)CCN([C@@H](CCc2ccccc2)C(=O)N[C@@H](Cc2cc(F)cc(F)c2)[C@H](O)[C@@H]2Cc3cccc(OC)c3CN2)C1=O (stereo partly drawn)
Beta-secretase 1 [1]
  IC50: 140 nM

## CCC(C)[C@@]1(NC(C)=O)CCN([C@@H](CCc2ccccc2)C(=O)N[C@@H](Cc2cc(F)cc(F)c2)[C@H](O)C2Cc3cccc(O)c3CN2)C1=O (stereo partly drawn)
Beta-secretase 1 [1]
  IC50: 870 nM

## CCCC[C@H]1CCN([C@@H](C)C(=O)N[C@@H](Cc2cc(F)cc(F)c2)[C@H](O)[C@H]2Cc3ccccc3CN2)C1=O
Beta-secretase 1 [1]
  IC50: 1600 nM
